Tests used:
[1] = system: HL60 (human promyelocytic leukemia) cells; assay: Gene expression profiling of tretinoin-treated HL60 cells, LMA RT-PCR amplicons detected on Luminex microspheres; assay type: cell-based; conditions: for Raw Signal (AU) / Differential Expression: log(tret/DMSO): HL60 cells; for Raw Signal (AU): 1 μmol/l tretinoin, five days; for Normalized Signal: normalized to LUA95, tretinoin-treated HL60 cells; for Differential Expression: log(tret/DMSO): tretinoin vs DMSO
Procedure: (§1) Gene expression profiling experiment were conducted to detect and quantify the effects of drug treatment on expression of certain target mRNAs in a complex sample using hydrogel particles. Applicants repeated previously reported multiplex ligation-mediated PCR experiments that used Luminex FlexMAP (Luminex, Austin, Tex., USA) optically addressed barcoded microspheres in side by side experiments with hydrogel particles using an endogenous reference gene for quantification. The methods used are described in Peck et al. A Method for High-Throughput Gene Expression Signature Analysis, Genome Biology, 7:R61, 2006; details are set forth in Example 3. Although the Peck et al experiments were done with traditional RT-PCR and hybridization in multiple steps, the experiments are amendable to embodiments of the present methods for one chamber quantitative multiplexed end point PCR.
(§2) HL60 (human promyelocytic leukemia) cells were cultured in the presence of either […] in DMSO or DMSO alone, and quantification was based on comparison of target mRNA expression to the reference gene […]. […] Upstream and downstream probe pairs designed for each of the targets by Peck were used to generate the amplicons. Unique upstream biotin-conjugated primers for each target included a 24 nucleotide bar code sequence for each of the five mRNAs. Applicants designed probes for immobilization on encoded hydrogel particles that were complementary to the 24 nucleotide bar code on each unique upstream primer to enable capture of the amplicons on encoded hydrogel particles. Methods for making the particles are described in Example 3. Each encoded hydrogel particle was made with multiple probe regions directed to each of the five mRNAs (four targets and one reference gene) and a control, respectively.
(§3) Total RNA was isolated from the HL60 cells, reverse-transcribed and amplified using a simple RT-PCR method. In order to compare the sensitivity of the encoded hydrogel particles to the Luminex magnetic particles, the exact protocol described by Peck et al. was followed. There were 39 cycles in which: there was an initial denaturation at 92° C. for 9 minutes, followed by denaturation at 92° C. for 30 s, followed by annealing at 60° C. for 30 s, extension at 72° C. for 30 s for 39 cycles, and a final extension at 72° C. for 5 minutes. After a final denaturation at 95° C. for two minutes hybridization was carried out at 45° C. for 60 minutes. Note that in the preferred embodiments of the present invention the hybridization temperature is from 2-15° C. […] than the primer annealing temperature to optimize specificity. By contrast, the hybridization temperature (45° C.) used by Peck et al. was 15° C. lower than the annealing temperature.
(§4) After hybridization, the respective Luminex and hydrogel particles were rinsed, incubated with streptavidin-phycoerythrin to fluorescently label the primers, rinsed again, and imaged for fluorescence. The fluorescent signals obtained were quantified and normalized against the internal reference (LUA95) after subtracting the background signal from the control region on each particle (CTL).
(§5) Similar to the protocol described in Peck et al., Genome Biology, 7:R61, 2006, HL60 (human promyelocytic leukemia) cells were cultured in RPMI supplemented with 10% fetal bovine serum and antibiotics. Cells were treated with 1 μmol/l tretinoin (all-trans retinoic acid; Sigma-Aldrich, St Louis, Mo., USA) in dimethyl sulfoxide (DMSO; final concentration 0.1%) or DMSO alone for five days. Total RNA was isolated from bulk cultures with TRIzol Reagent (Invitrogen, Carlsbad, Calif., USA), in accordance with the manufacturer's directions. For the classification exercise, microtiter plate cultures were treated with 200 nmol/l tretinoin or DMSO for two days to mimic the submaximal signatures likely to be encountered in a small molecule screen, and were and prepared for mRNA capture by the addition of Lysis Buffer (RNAture, Irvine, Calif., USA). […]

[2] = system: HL60 (human promyelocytic leukemia) cells; assay: Gene expression profiling of tretinoin-treated HL60 cells, LMA RT-PCR amplicons detected on encoded hydrogel particles; assay type: cell-based; conditions: for Raw Signal (AU) / Differential Expression: log(tret/DMSO): HL60 cells; for Raw Signal (AU): 1 μmol/l tretinoin, five days; for Normalized Signal: normalized to LUA95, tretinoin-treated HL60 cells; for Differential Expression: log(tret/DMSO): tretinoin vs DMSO
Procedure: as §1, §2, §3, §4, §5

[3] = LUA95 (GAPDH3 internal reference, NM_002046)

SMILES: CC1=C(/C=C/C(C)=C/C=C/C(C)=C/C(=O)O)C(C)(C)CCC1 [tretinoin]
- Raw Signal (AU) ([1]; LUA7 mRNA (NM_000962)): 389.3 AU
- Normalized Signal ([1]; LUA7 mRNA (NM_000962)): 0.222
- Differential Expression: log(tret/DMSO) ([1]; LUA7 mRNA (NM_000962)): 0.785
- Raw Signal (AU) ([1]; LUA27 mRNA (NM_006432)): 775.5 AU
- Normalized Signal ([1]; LUA27 mRNA (NM_006432)): 0.442
- Differential Expression: log(tret/DMSO) ([1]; LUA27 mRNA (NM_006432)): 0.871
- Raw Signal (AU) ([1]; LUA59 mRNA (NM_004095)): 100.3 AU
- Normalized Signal ([1]; LUA59 mRNA (NM_004095)): 0.057
- Differential Expression: log(tret/DMSO) ([1]; LUA59 mRNA (NM_004095)): −0.576
- Raw Signal (AU) ([1]; LUA68 mRNA (NM_003132)): 178.0 AU
- Normalized Signal ([1]; LUA68 mRNA (NM_003132)): 0.101
- Differential Expression: log(tret/DMSO) ([1]; LUA68 mRNA (NM_003132)): −0.619
- Raw Signal (AU) [1, 3]: 1754.4 AU
- Raw Signal (AU) ([2]; LUA7 mRNA (NM_000962)): 7.44 AU
- Normalized Signal ([2]; LUA7 mRNA (NM_000962)): 0.084
- Differential Expression: log(tret/DMSO) ([2]; LUA7 mRNA (NM_000962)): 0.486
- Raw Signal (AU) ([2]; LUA27 mRNA (NM_006432)): 14.64 AU
- Normalized Signal ([2]; LUA27 mRNA (NM_006432)): 0.166
- Differential Expression: log(tret/DMSO) ([2]; LUA27 mRNA (NM_006432)): 0.818
- Raw Signal (AU) ([2]; LUA59 mRNA (NM_004095)): 1.14 AU
- Normalized Signal ([2]; LUA59 mRNA (NM_004095)): 0.013
- Differential Expression: log(tret/DMSO) ([2]; LUA59 mRNA (NM_004095)): −0.841
- Raw Signal (AU) ([2]; LUA68 mRNA (NM_003132)): 2.99 AU
- Normalized Signal ([2]; LUA68 mRNA (NM_003132)): 0.034
- Differential Expression: log(tret/DMSO) ([2]; LUA68 mRNA (NM_003132)): −0.822
- Raw Signal (AU) [2, 3]: 88.45 AU
